# Assays:
# [1] = system: type II alveolar epithelial cells; test: Basement membrane formation by alveolar epithelial cells on collagen fiber (fib) with Matrigel or TGF-β (T2-fib-MG, T2-fib-TGFβ); assay type: cell-based, rat; details: fibrous collagen substratum, TGF-β in upper and lower wells (T2-fib-TGFβ)
# Source text: The present inventors made a study on a process to form a basement membrane structure just beneath the basal surface of epithelial cells on a fibrous collagen matrix by the coculture with fibroblasts-embedded collagen gel, and by the culture in the presence of TGF-β or Matrigel. […] However, it was also confirmed that type II alveolar epithelial cells were unable to constitute a basement membrane without the supply of, for example, a fibroblast, exogenous basement membrane components from Matrigel or a growth factor TGF-β, since the endogenous basement membrane components from type II alveolar epithelial cells are not enough for the cells to assemble a basement membrane structure effectively. […]
# [2] = system: alveolar epithelial cells; test: Construction of a basement membrane according to the MMP inhibition method; assay type: cell-based; details: 2 weeks on fib, 1% fetal bovine serum, no basement membrane components added
# Protocol: Alveolar epithelial cells were cultured on collagen fiber (fib) with the only addition of 1% fetal bovine serum and synthetic inhibitor of matrix metalloproteinase (MMP) and without the addition of basement membrane components for 2 weeks. As MMP inhibitor, GM6001 (Calbiochem) and MMP-2/MMP-9 inhibitor I (Calbiochem) were used. 1.1 μM of GM6001 and 310 μM of MMP-2/MMP-9 inhibitor I (2/9 inhibitor) were added respectively.
molecule,measurement,setting,value
TGF-β,basement membrane formation by type II alveolar epithelial cells,[1],a basement membrane was formed
O=C(O)[C@@H](Cc1ccccc1)NS(=O)(=O)c1ccc(-c2ccccc2)cc1 [MMP-2/MMP-9 inhibitor I],basement membrane structure formation beneath the cells,[2]; 310 μM,complete basement membrane structure (▴) was formed
CNC(=O)[C@H](Cc1c[nH]c2ccccc12)NC(=O)[C@@H](CC(=O)NO)CC(C)C [GM6001],basement membrane structure formation beneath the cells,[2]; 1.1 μM,complete basement membrane structure (▴) was formed

# From US7906332B2, “Method of preparing basement membrane, method of constructing basement membrane specimen, reconstituted artificial tissue using the basement membrane specimen and process for producing the same” (Japan Science And Technology Agency, priority 2001, dated 2011)
